Test results reported in PubChem BioAssay (NCI).
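48-hour exposure; five concentrations; linearly interpolated endpoints. GI50 = concentration required for 50% inhibition of growth. TGI marks complete inhibition of growth.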

How the values were obtained:
Assay in all cases: growth of human tumour cells (NCI), 48 h
DU-145 prostate = tested on: DU-145 prostate
SW-620 colon = tested on: SW-620 colon
SK-OV-3 ovarian = tested on: SK-OV-3 ovarian
NCI/ADR-RES ovarian = tested on: NCI/ADR-RES ovarian
HCT-15 colon = tested on: HCT-15 colon
A498 renal = tested on: A498 renal
SK-MEL-5 melanoma = tested on: SK-MEL-5 melanoma
OVCAR-5 ovarian = tested on: OVCAR-5 ovarian
A549 NSCLC = tested on: A549 NSCLC
MOLT-4 leukemia = tested on: MOLT-4 leukemia
OVCAR-4 ovarian = tested on: OVCAR-4 ovarian
HOP-62 NSCLC = tested on: HOP-62 NSCLC
COLO 205 colon = tested on: COLO 205 colon
M14 melanoma = tested on: M14 melanoma
HT29 colon = tested on: HT29 colon
HL-60(TB) leukemia = tested on: HL-60(TB) leukemia
SF-539 CNS = tested on: SF-539 CNS
SN12C renal = tested on: SN12C renal
CAKI-1 renal = tested on: CAKI-1 renal
HCC-2998 colon = tested on: HCC-2998 colon
HS 578T breast = tested on: HS 578T breast
TK-10 renal = tested on: TK-10 renal
NCI-H226 lung = tested on: NCI-H226 lung
OVCAR-8 ovarian = tested on: OVCAR-8 ovarian
RXF 393 renal = tested on: RXF 393 renal
RPMI-8226 leukemia = tested on: RPMI-8226 leukemia
SR leukemia = tested on: SR leukemia
SNB-75 CNS = tested on: SNB-75 CNS
MCF7 breast = tested on: MCF7 breast
T-47D breast = tested on: T-47D breast
CCRF-CEM leukemia = tested on: CCRF-CEM leukemia
HCT-116 colon = tested on: HCT-116 colon
NCI-H460 lung = tested on: NCI-H460 lung
HOP-92 NSCLC = tested on: HOP-92 NSCLC
OVCAR-3 ovarian = tested on: OVCAR-3 ovarian
ACHN renal = tested on: ACHN renal
MDA-MB-435 = tested on: MDA-MB-435
BT-549 breast = tested on: BT-549 breast
SF-295 CNS = tested on: SF-295 CNS
MALME-3M melanoma = tested on: MALME-3M melanoma
MDA-MB-231 breast = tested on: MDA-MB-231 breast
KM12 colon = tested on: KM12 colon
PC-3 prostate = tested on: PC-3 prostate
NCI-H522 lung = tested on: NCI-H522 lung
SF-268 CNS = tested on: SF-268 CNS
UO-31 renal = tested on: UO-31 renal
LOX IMVI melanoma = tested on: LOX IMVI melanoma
786-0 renal = tested on: 786-0 renal
EKVX NSCLC = tested on: EKVX NSCLC
NCI-H23 lung = tested on: NCI-H23 lung
UACC-62 melanoma = tested on: UACC-62 melanoma
K-562 leukemia = tested on: K-562 leukemia
IGROV1 ovarian = tested on: IGROV1 ovarian
U251 CNS = tested on: U251 CNS
SK-MEL-28 melanoma = tested on: SK-MEL-28 melanoma
SK-MEL-2 melanoma = tested on: SK-MEL-2 melanoma

`O=C1CSC(c2ccccc2Cl)N1c1nnc(Cn2cnnc2)o1` (configuration not stated) was tested, and the GI50 (DU-145 prostate) was 19.7 µM, the TGI (DU-145 prostate) was 44.3 µM and the GI50 (SW-620 colon) was 4.73 µM. For the same compound, the TGI (SW-620 colon) was 27.5 µM, the GI50 (SK-OV-3 ovarian) was 14.9 µM and the TGI (SK-OV-3 ovarian) was 75.7 µM. For the same compound, the GI50 (NCI/ADR-RES ovarian) was 6.64 µM, the TGI (NCI/ADR-RES ovarian) was 83.4 µM and the GI50 (HCT-15 colon) was 4.47 µM. It also gave a TGI (HCT-15 colon) of 18.2 µM, a GI50 (A498 renal) of 12.3 µM and a TGI (A498 renal) of 52.7 µM. For the same compound, the GI50 (SK-MEL-5 melanoma) was 7.81 µM, the TGI (SK-MEL-5 melanoma) was 21.2 µM and the GI50 (OVCAR-5 ovarian) was 20.4 µM. The TGI (OVCAR-5 ovarian) was 44.3 µM, the GI50 (A549 NSCLC) was 18 µM and the TGI (A549 NSCLC) was > 100 µM. For the same compound, the GI50 (MOLT-4 leukemia) was 7.27 µM, the TGI (MOLT-4 leukemia) was 26.1 µM and the GI50 (OVCAR-4 ovarian) was 23.9 µM. For the same compound, the TGI (OVCAR-4 ovarian) was > 100 µM, the GI50 (HOP-62 NSCLC) was 17.6 µM and the TGI (HOP-62 NSCLC) was 44.6 µM. For the same compound, the GI50 (COLO 205 colon) was 10.5 µM, the TGI (COLO 205 colon) was 23.2 µM and the GI50 (M14 melanoma) was 6.06 µM. For the same compound, the TGI (M14 melanoma) was 24.7 µM, the GI50 (HT29 colon) was 3.35 µM and the TGI (HT29 colon) was 13.9 µM. The GI50 (HL-60(TB) leukemia) was 2.69 µM, the TGI (HL-60(TB) leukemia) was 8.67 µM and the GI50 (SF-539 CNS) was 13.6 µM. The TGI (SF-539 CNS) was 35.2 µM, the GI50 (SN12C renal) was 23.1 µM and the TGI (SN12C renal) was 76.3 µM. For the same compound, the GI50 (CAKI-1 renal) was 11.4 µM, the TGI (CAKI-1 renal) was > 100 µM and the GI50 (HCC-2998 colon) was 12.3 µM. The TGI (HCC-2998 colon) was 27.2 µM, the GI50 (HS 578T breast) was 8.62 µM and the TGI (HS 578T breast) was 60.9 µM. The GI50 (TK-10 renal) was 22.8 µM, the TGI (TK-10 renal) was 81.9 µM and the GI50 (NCI-H226 lung) was 17.3 µM. For the same compound, the TGI (NCI-H226 lung) was 36.1 µM, the GI50 (OVCAR-8 ovarian) was 30.2 µM and the TGI (OVCAR-8 ovarian) was > 100 µM. The GI50 (RXF 393 renal) was 24.3 µM, the TGI (RXF 393 renal) was 79.4 µM and the GI50 (RPMI-8226 leukemia) was 5.77 µM. The TGI (RPMI-8226 leukemia) was 95.5 µM, the GI50 (SR leukemia) was 3.51 µM and the TGI (SR leukemia) was 19.1 µM. The GI50 (SNB-75 CNS) was 3.19 µM, the TGI (SNB-75 CNS) was 41.8 µM and the GI50 (MCF7 breast) was 1.63 µM. It also gave a TGI (MCF7 breast) of 13.2 µM, a GI50 (T-47D breast) of 3.76 µM and a TGI (T-47D breast) of 31.9 µM. For the same compound, the GI50 (CCRF-CEM leukemia) was 5.83 µM, the TGI (CCRF-CEM leukemia) was > 100 µM and the GI50 (HCT-116 colon) was 4.09 µM. The TGI (HCT-116 colon) was 18.4 µM, the GI50 (NCI-H460 lung) was 7.91 µM and the TGI (NCI-H460 lung) was 43.8 µM. The GI50 (HOP-92 NSCLC) was 19.3 µM, the TGI (HOP-92 NSCLC) was 79.1 µM and the GI50 (OVCAR-3 ovarian) was 3.4 µM. It also gave a TGI (OVCAR-3 ovarian) of 10.7 µM, a GI50 (ACHN renal) of 14.3 µM and a TGI (ACHN renal) of 48.6 µM. The GI50 (MDA-MB-435) was 2.2 µM, the TGI (MDA-MB-435) was 5.96 µM and the GI50 (BT-549 breast) was 6.31 µM. The TGI (BT-549 breast) was 32.5 µM, the GI50 (SF-295 CNS) was 3.38 µM and the TGI (SF-295 CNS) was 19.5 µM. The GI50 (MALME-3M melanoma) was 6.84 µM, the TGI (MALME-3M melanoma) was 30.6 µM and the GI50 (MDA-MB-231 breast) was 12.1 µM. It also gave a TGI (MDA-MB-231 breast) of 29.9 µM, a GI50 (KM12 colon) of 5.2 µM and a TGI (KM12 colon) of 20.3 µM. For the same compound, the GI50 (PC-3 prostate) was 11.6 µM, the TGI (PC-3 prostate) was > 100 µM and the GI50 (NCI-H522 lung) was 10.4 µM. The TGI (NCI-H522 lung) was 38 µM, the GI50 (SF-268 CNS) was 13.9 µM and the TGI (SF-268 CNS) was 93.7 µM. The GI50 (UO-31 renal) was 30.8 µM, the TGI (UO-31 renal) was > 100 µM and the GI50 (LOX IMVI melanoma) was 7.43 µM. The TGI (LOX IMVI melanoma) was 21 µM, the GI50 (786-0 renal) was 13.8 µM and the TGI (786-0 renal) was 33.4 µM. For the same compound, the GI50 (EKVX NSCLC) was 22.3 µM, the TGI (EKVX NSCLC) was > 100 µM and the GI50 (NCI-H23 lung) was 16.4 µM. For the same compound, the TGI (NCI-H23 lung) was > 100 µM, the GI50 (UACC-62 melanoma) was 7.55 µM and the TGI (UACC-62 melanoma) was 27.5 µM. The GI50 (K-562 leukemia) was 3.33 µM, the TGI (K-562 leukemia) was 16.2 µM and the GI50 (IGROV1 ovarian) was 17 µM. For the same compound, the TGI (IGROV1 ovarian) was > 100 µM, the GI50 (U251 CNS) was 4.58 µM and the TGI (U251 CNS) was 18.9 µM. For the same compound, the GI50 (SK-MEL-28 melanoma) was 12.3 µM, the TGI (SK-MEL-28 melanoma) was 45.8 µM and the GI50 (SK-MEL-2 melanoma) was 22.6 µM. The TGI (SK-MEL-2 melanoma) was 94.8 µM.
